For one compound, mortality rate results are on record in patent US6833137B1, “Protection against termites” (Bayer CropScience S.A., priority 1996, dated 2004).

This experiment concerns termites. The experiment in a line: termite perforation test on gypsum block treated with compound A, separating two chambers. As to conditions: after 21 days; gypsum block sprayed on both faces, 0.05 g/m^2 of compound A; 160 termites in upper chamber. The format is in vivo. The source says:
A gypsum block is used which has a surface area of 30 cm^2 and a thickness of 0.8 cm and is covered on both its face with cardboard having a relative density of […] and a thickness of 0.2 mm.
A solution of compound A in propylene glycol is sprayed over both faces of this block in an amount such that the gypsum block contains 0.05 g/m^2 of compound A.
Two vertical cylindrical chambers with a diameter of 5 cm are separated using the gypsum block thus treated. The upper chamber comprises 160 termites placed in damp compost. The lower chamber comprises a piece of wood placed in moistened sand.
After 21 days, a mortality rate equal to 100% is observed.

Consider `N#Cc1nn(-c2c(Cl)cc(C(F)(F)F)cc2Cl)c(N)c1[S+]([O-])C(F)(F)F` (stereo not shown) [compound A, 1-[2,6-Cl2-4-CF3phenyl]-3-CN-4-[SO—CF3]-5-NH2pyrazole], for which the mortality rate is recorded as 100%.
